Test results reported in article PMC11999265, “New routes for spermine biosynthesis” (The Journal of Biological Chemistry, 2025).

Experiments:
[1] = molecular target: T1, Psychromonas marina CASDH (Psychromonas marina, UniProt A0ABQ6DYR2); assay: LC-MS of benzoylated spermidine in E. coli extract; format: cell-based; settings: endogenous putrescine, BL21speD, coexpressed with CASDC
T1 sequence (A0ABQ6DYR2 1-405): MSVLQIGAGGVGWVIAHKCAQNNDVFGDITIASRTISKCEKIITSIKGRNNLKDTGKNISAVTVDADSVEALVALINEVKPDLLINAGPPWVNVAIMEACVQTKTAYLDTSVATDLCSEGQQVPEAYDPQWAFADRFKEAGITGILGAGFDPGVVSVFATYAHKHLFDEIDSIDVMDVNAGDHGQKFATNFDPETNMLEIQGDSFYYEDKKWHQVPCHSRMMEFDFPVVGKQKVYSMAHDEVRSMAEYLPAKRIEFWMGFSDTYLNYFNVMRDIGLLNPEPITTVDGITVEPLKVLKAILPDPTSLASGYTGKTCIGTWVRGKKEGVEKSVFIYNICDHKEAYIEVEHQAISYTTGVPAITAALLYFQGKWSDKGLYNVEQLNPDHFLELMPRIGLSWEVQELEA

[2] = molecular target: T2, Brucella abortus CASDH (Brucella abortus, UniProt Q2YPK8); settings: endogenous putrescine, BL21speD, coexpressed with CASDC
T2 construct: gene BAB1_0364

NCCCCN [putrescine]
LC-MS of benzoylated spermidine in E. coli extract [1]: all CASDH/CASDC pairs were able to synthesize spermidine in the spermidine-void BL21speD cells | LC-MS of benzoylated spermidine in E. coli extract [2]: all CASDH/CASDC pairs were able to synthesize spermidine in the spermidine-void BL21speD cells
